Measurements as given in ChEMBL document CHEMBL1201862, “PubChem BioAssay data set” (2004).
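These data come from cells grown in 96-well plates and exposed to compound for 48 hours at five concentrations. GI50 = concentration required for 50% inhibition of growth.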 Active and inactive are the calls of the source. Cut-off read from the data, not from the text of the source: active = GI50 up to about 1.1 µM and inactive = higher. Starred links: 1 amine or outer side, 2 acyl side, 3 side chain; linkers in the order of their positions; H or OH if unused. Non-standard residues stand in square brackets, D forms with d. Residues, ends and D or L forms follow the SMILES beside them. X41 = CSCCCC(N[*:1])C(=O)[*:2]

What was measured:
Test in all cases: DTP human tumour cell line panel, 48 h
[1] = test system: UACC-257
[2] = test system: HL-60
[3] = test system: DU-145
[4] = test system: SF-295
[5] = test system: SK-OV-3
[6] = test system: OVCAR-8
[7] = test system: T47D
[8] = test system: SW-620
[9] = test system: HOP-62
[10] = test system: MDA-MB-231
[11] = test system: RPMI-8226
[12] = test system: CAKI-1
[13] = test system: MDA-MB-435
[14] = test system: HCT-116
[15] = test system: HOP-92
[16] = test system: A498
[17] = test system: OVCAR-5
[18] = test system: Malme-3M
[19] = test system: OVCAR-3
[20] = test system: NCI-H23

Measured: GI50

COc1ccc(C(=O)/C=C/c2ccc(OCCSCCCCCCCCCCSCCOc3ccc(/C=C/C(=O)c4ccc(OC)cc4)cc3)cc2)cc1
inactive: [1] > 100 µM | [2] > 100 µM | [3] > 100 µM | [4] > 100 µM | [5] > 100 µM | [6] > 100 µM | [7] > 100 µM | [8] > 100 µM | [9] > 100 µM | [10] > 100 µM | [11] > 100 µM | [12] > 100 µM | [13] > 100 µM | [14] > 100 µM

CSCCCC(NC(=O)CNC(=O)C1CCCN1C(=O)C(Cc1ccc(O)cc1)NC(=O)C(Cc1ccccc1)NC(=O)C(CCCNC(=N)N)NC(=O)C(CC(=O)O)NC(=O)C1CCCN1C(=O)C(CC(=O)O)NC(=O)C1CCCN1C(=O)C1CCCN1C(=O)CN)C(N)=O (centres undefined) (H-GPPDPDRFYPG[X41]-NH2; configuration not given here)
inactive: [15] > 50 µM | [1] > 50 µM | [2] > 50 µM | [16] > 50 µM | [17] > 50 µM | [18] > 50 µM | [4] > 50 µM | [19] > 50 µM | [5] > 50 µM | [6] > 50 µM | [7] > 50 µM | [8] > 50 µM | [9] > 50 µM | [10] > 50 µM | [11] > 50 µM | [12] > 50 µM | [13] > 50 µM | [14] > 50 µM | [20] > 50 µM

CC(C)N1[C@@H]2CCCC[C@H]2N(C(C)C)[PH]1=O
inactive: [15] > 100 µM | [1] > 100 µM | [3] > 100 µM | [16] > 100 µM | [17] > 100 µM | [4] > 100 µM | [19] > 100 µM | [5] > 100 µM | [6] > 100 µM | [7] > 100 µM | [8] > 100 µM | [9] > 100 µM | [11] > 100 µM | [12] > 100 µM | [13] > 100 µM | [14] > 100 µM | [20] > 100 µM

C/C(CC(=O)CCC(=O)Nc1cccc(C(F)(F)F)c1)=N\NC(=O)NN
inactive: [15] > 100 µM | [1] > 100 µM | [2] > 100 µM | [16] > 100 µM | [17] > 100 µM | [18] > 100 µM | [4] > 100 µM | [19] > 100 µM | [5] > 100 µM | [6] > 100 µM | [8] > 100 µM | [9] > 100 µM | [11] > 100 µM | [12] > 100 µM | [14] > 100 µM | [20] > 100 µM

O=C1c2cn[nH]c2N=C(Nc2ccccc2)C1/N=C/c1ccc([N+](=O)[O-])cc1 (centres undefined)
inactive: [1] > 10 µM | [2] > 10 µM | [3] > 10 µM | [17] > 10 µM | [18] > 10 µM | [4] > 10 µM | [19] > 10 µM | [6] > 10 µM | [13] > 10 µM | [14] > 10 µM | [20] > 10 µM

O=C1CCCC/C1=C/C=C/c1ccccc1
inactive: [15] 58.5 µM | [1] 62.2 µM | [2] 25.9 µM | [3] 64.6 µM | [16] > 100 µM | [17] > 100 µM | [18] 87.9 µM | [4] 48.6 µM | [19] 66.4 µM | [5] 55.7 µM | [6] 84.1 µM | [8] 41.6 µM | [11] 32.5 µM | [12] > 100 µM | [14] 43.7 µM | [20] 51.4 µM

COc1cc(C=O)c(-c2cc(OC)c(OC)cc2C=O)cc1OC
inactive: [15] > 100 µM | [1] > 100 µM | [2] 36.8 µM | [16] > 100 µM | [17] > 100 µM | [18] > 100 µM | [4] > 100 µM | [19] > 100 µM | [5] > 100 µM | [6] 91.4 µM | [8] 78 µM | [9] > 100 µM | [11] 36.9 µM | [12] > 100 µM | [14] 70.3 µM | [20] 52.6 µM

O=c1oc2c(O)c(O)c(O)c3c(=O)oc4c(O)c(O)cc1c4c23 [FLAVELLAGIC ACID]
inactive: [15] > 100 µM | [1] > 100 µM | [2] 36.6 µM | [16] > 100 µM | [17] > 100 µM | [18] > 100 µM | [4] 23.8 µM | [19] 61 µM | [5] > 100 µM | [6] 71.4 µM | [8] 97.7 µM | [9] > 100 µM | [11] > 100 µM | [12] > 100 µM | [14] 89.9 µM | [20] > 100 µM

COc1ccc(C(=O)C(CC2C(=O)CC(C)(C)C(C(=O)C(=O)Nc3c(C)cccc3C)C2=O)c2ccc(OC)cc2)cc1 (centres undefined)
inactive: [15] > 100 µM | [1] > 100 µM | [2] 96.6 µM | [3] > 100 µM | [17] > 100 µM | [4] > 100 µM | [19] > 100 µM | [5] > 100 µM | [6] > 100 µM | [8] > 100 µM | [9] > 100 µM | [10] > 100 µM | [12] > 100 µM | [13] > 100 µM | [14] > 100 µM | [20] > 100 µM

CC[As](CC)SCC1OC(OC(C)=O)C(OC(C)=O)C(OC(C)=O)C1OC(C)=O (centres undefined)
inactive: [15] 3.15 µM | [1] 14.2 µM | [2] 3.16 µM | [16] 20.6 µM | [17] 18.3 µM | [18] 3.53 µM | [4] 18.9 µM | [19] 14.4 µM | [5] 15.8 µM | [6] 16 µM | [8] 4.74 µM | [9] 20.8 µM | [11] 6.58 µM | [12] 2.84 µM | [14] 17.1 µM | [20] 13.5 µM

COC(=O)/C=C1/N=C(N(C)/N=C/c2ccccc2)NC1=O
inactive: [1] > 100 µM | [2] > 100 µM | [3] > 100 µM | [17] > 100 µM | [18] > 100 µM | [4] > 100 µM | [19] > 100 µM | [5] > 100 µM | [6] > 100 µM | [7] > 100 µM | [8] > 100 µM | [9] > 100 µM | [10] > 100 µM | [12] > 100 µM | [14] > 100 µM | [20] > 100 µM

Cc1cc2[nH]c3c(C#N)c(-c4ccccc4)c(/C=N/c4ccc(F)cc4)c(=O)n3c2cc1C
inactive: [1] > 100 µM | [16] > 100 µM | [17] > 100 µM | [18] 76 µM | [4] 64.6 µM | [19] 39.4 µM | [5] > 100 µM | [6] > 100 µM | [7] 40.6 µM | [8] 62.5 µM | [9] > 100 µM | [10] > 100 µM | [11] > 100 µM | [12] > 100 µM | [13] 91.2 µM | [14] > 100 µM | [20] > 100 µM

CCN(CC)c1c(C(=O)/C=C/c2ccc(Cl)cc2)c(-c2ccccc2)nn(C)c1=O
inactive: [15] 1.63 µM | [1] 1.93 µM | [2] 1.19 µM | [16] 2.03 µM | [17] 1.74 µM | [18] 2.22 µM | [4] 1.85 µM | [19] 2.16 µM | [5] 3.94 µM | [6] 1.64 µM | [8] 2.16 µM | [9] 2.12 µM | [11] 2.25 µM | [12] 3.56 µM | [14] 1.67 µM | [20] 1.68 µM

O=c1c2ccccc2[nH]c2ccc3c(Cl)n[nH]c3c12
inactive: [15] 38.5 µM | [1] 37.2 µM | [2] 40.1 µM | [16] 30.9 µM | [17] 41.1 µM | [18] 19.1 µM | [4] 37.2 µM | [19] 57.4 µM | [5] > 100 µM | [6] 40.5 µM | [8] 36.5 µM | [9] 29.1 µM | [11] 39.7 µM | [12] 23.7 µM | [14] 31.8 µM | [20] 35.2 µM

CCOC(=O)c1ccc(/N=C\c2ccc(N(CCC#N)CCC#N)cc2)cc1
inactive: [15] > 100 µM | [1] > 100 µM | [2] 80.9 µM | [16] > 100 µM | [17] > 100 µM | [18] > 100 µM | [4] > 100 µM | [19] > 100 µM | [5] > 100 µM | [6] 89.1 µM | [8] 81.5 µM | [9] 40.5 µM | [11] 65.6 µM | [12] > 100 µM | [14] 48 µM | [20] > 100 µM

Cc1ccc(C2=C(c3ccccc3)C(O)(c3ccc(C)cc3)C(c3ccccc3)=C2c2ccc(C)cc2)cc1
inactive: [15] > 100 µM | [1] > 100 µM | [2] 14.4 µM | [16] > 100 µM | [17] > 100 µM | [18] > 100 µM | [4] > 100 µM | [19] 69 µM | [5] > 100 µM | [6] > 100 µM | [8] > 100 µM | [9] > 100 µM | [11] 54.6 µM | [12] 99.5 µM | [14] > 100 µM | [20] 1.91 µM
